According to US10570184B2, “GLP-1/glucagon receptor co-agonists for medical use” (Novo Nordisk A/S, priority 2014, dated 2020):
Starred links: 1 amine or outer side, 2 acyl side, 3 side chain; linkers in the order of their positions; H or OH if unused. Non-standard residues stand in square brackets, D forms with d. Residues, ends and D or L forms follow the SMILES beside them. Groups on a side chain read outwards from the residue. *: point of attachment. C18 diacid = O=C(O)CCCCCCCCCCCCCCCCC(=O)*; γGlu = O=C(O)[C@H](CCC(=O)[*:2])N[*:1]; Ac4c = NC1(C(=O)O)CCC1; AEEA = NCCOCCOCC(=O)O; Aib = CC(C)(N)C(=O)O

Legend:
[1] = biological target: T1, human GLP-1 receptor (Homo sapiens, UniProt P43220); experiment: Assay (I)(a) GLP-1 receptor activation, CRE luciferase reporter gene assay in BHK cells; type: cell-based; conditions: without presence of serum albumin; read-out: GLP-1R EC50 (pM) [Assay (I)(a)]
T1 construct: expressed in transfected cells; host or cells: membranes of BHK cells (parent BHKTS13), clone FCW467-12A
Summary of the method: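 Stable BHK clone expressing human GLP-1 receptor with CRE-driven firefly luciferase, 5×10EE3 cells/well in medium with 2% ovalbumin and 0.2% Pluronic F-68. Compounds at 1×10EE-13 to 1×10EE-6 M final, 3 h at 37° C.; luminescence read, EC50 (pM) from four-parameter fit.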

[2] = Assay (III) ThT fibrillation assay for physical stability; type: physicochemical; conditions: 250 μM in 10 mM HEPES buffer, 37° C., shaking 960 rpm
Summary of the method: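 Glucagon derivative at 250 μM in 10 mM HEPES pH 7.5 with 1 μM ThT was incubated at 37 °C under 960 rpm orbital shaking. Fluorescence (ex 444/em 485 nm) was read every 20 min and fitted for lag time (t0−2τ) and kapp (1/τ). Recovery was soluble peptide after centrifugation/filtration, by RP-HPLC, as percent of initial.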

T1 sequence (P43220 24-463): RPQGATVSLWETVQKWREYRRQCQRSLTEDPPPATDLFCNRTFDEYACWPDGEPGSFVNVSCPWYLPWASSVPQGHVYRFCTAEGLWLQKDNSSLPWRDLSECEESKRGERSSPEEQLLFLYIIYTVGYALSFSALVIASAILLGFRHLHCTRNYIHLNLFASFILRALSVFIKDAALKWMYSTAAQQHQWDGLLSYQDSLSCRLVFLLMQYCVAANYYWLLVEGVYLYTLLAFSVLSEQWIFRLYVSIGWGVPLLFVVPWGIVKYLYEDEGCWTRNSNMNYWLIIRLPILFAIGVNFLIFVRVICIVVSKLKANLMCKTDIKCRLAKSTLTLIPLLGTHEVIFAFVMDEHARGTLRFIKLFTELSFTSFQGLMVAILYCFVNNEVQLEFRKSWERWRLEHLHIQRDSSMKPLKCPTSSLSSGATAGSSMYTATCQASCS

SMILES	EC50 [1] [pM]	ThT Assay Lag time (h) [Assay (III), pH 7.5] [2] [h]
CC[C@H](C)[C@H](NC(=O)[C@H](CC(C)C)NC(=O)[C@H](Cc1c[nH]c2ccccc12)NC(=O)[C@H](CCC(N)=O)NC(=O)[C@@H](NC(=O)[C@H](Cc1ccccc1)NC(=O)[C@H](CCC(=O)O)NC(=O)[C@H](CCCNC(=N)N)NC(=O)[C@H](C)NC(=O)[C@H](CCCNC(=N)N)NC(=O)[C@H](CCCNC(=N)N)NC(=O)[C@H](CO)NC(=O)[C@H](CCC(=O)O)NC(=O)[C@H](CC(C)C)NC(=O)[C@H](Cc1ccc(O)cc1)NC(=O)[C@H](CCCCN)NC(=O)[C@H](CO)NC(=O)[C@H](CC(C)C)NC(=O)[C@H](CC(=O)O)NC(=O)[C@H](CO)NC(=O)[C@@H](NC(=O)[C@H](Cc1ccccc1)NC(=O)[C@@H](NC(=O)CNC(=O)[C@H](CCC(N)=O)NC(=O)C1(NC(=O)[C@@H](N)Cc2c[nH]cn2)CCC1)[C@@H](C)O)[C@@H](C)O)C(C)C)C(=O)N[C@@H](CCCCNC(=O)CNC(=O)[C@H](CO)NC(=O)[C@H](CCC(=O)O)NC(=O)CNC(=O)[C@H](CO)NC(=O)CC[C@H](NC(=O)CC[C@H](NC(=O)CCCCCCCCCCCCCCCCC(=O)O)C(=O)O)C(=O)O)C(=O)N[C@H](C(N)=O)[C@@H](C)O [Chem. 16, N^ε28-[2-[[(2S)-2-[[(2S)-4-carboxy-2-[[2-[[(2S)-2-[[(4S)-4-carboxy-4-[[(4S)-4-carboxy-4-(17-carboxyheptadecanoylamino)butanoyl]amino]butanoyl]amino]-3-hydroxypropanoyl]amino]acetyl]amino]butanoyl]amino]-3-hydroxypropanoyl]amino]acetyl]-[Acb2,Leu10,Glu15,Arg20,Glu21,Ile27,Lys28]-Glucagon amide] (HELM PEPTIDE1{H.[O=C(C1(N[*:1])CCC1)[*:2]].Q.G.T.F.T.S.D.L.S.K.Y.L.E.S.R.R.A.R.E.F.V.Q.W.L.I.K.T.[am]}|PEPTIDE2{[O=C(O)CCCCCCCCCCCCCCCCC(=O)[*:2]].[gGlu].[gGlu].S.G.E.S.G}$PEPTIDE1,PEPTIDE2,28:R3-8:R2$$$V2.0)	5	16.0
CC[C@H](C)[C@H](NC(=O)[C@H](CC(C)C)NC(=O)[C@H](Cc1c[nH]c2ccccc12)NC(=O)[C@H](CCC(N)=O)NC(=O)[C@@H](NC(=O)[C@H](Cc1ccccc1)NC(=O)[C@H](CCC(=O)O)NC(=O)[C@H](CCCNC(=N)N)NC(=O)[C@H](C)NC(=O)[C@H](CCCNC(=N)N)NC(=O)[C@H](CCCNC(=N)N)NC(=O)[C@H](CO)NC(=O)[C@H](CCC(=O)O)NC(=O)[C@H](CC(C)C)NC(=O)[C@H](Cc1ccc(O)cc1)NC(=O)[C@H](CCCCN)NC(=O)[C@H](CO)NC(=O)[C@H](CC(C)C)NC(=O)[C@H](CC(=O)O)NC(=O)[C@H](CO)NC(=O)[C@@H](NC(=O)[C@H](Cc1ccccc1)NC(=O)[C@@H](NC(=O)CNC(=O)[C@H](CCC(N)=O)NC(=O)C1(NC(=O)[C@@H](N)Cc2c[nH]cn2)CCC1)[C@@H](C)O)[C@@H](C)O)C(C)C)C(=O)N[C@@H](CCCCNC(=O)COCCOCCNC(=O)COCCOCCNC(=O)CC[C@H](NC(=O)CC[C@H](NC(=O)CCCCCCCCCCCCCCCCC(=O)O)C(=O)O)C(=O)O)C(=O)N[C@H](C(N)=O)[C@@H](C)O [Chem. 18, N^ε28-[2-[2-[2-[[2-[2-[2-[[(4S)-4-carboxy-4-[[(4S)-4-carboxy-4-(17-carboxyheptadecanoylamino)butanoyl]amino]butanoyl]amino]ethoxy]ethoxy]acetyl]amino]ethoxy]ethoxy]acetyl]-[Acb2,Leu10,Glu15,Arg20,Glu21,Ile27,Lys28]-Glucagon amide] (H-H[Ac4c]QGTFTSDLSKYLESRRAREFVQWLIK([AEEA-AEEA-γGlu-γGlu-C18 diacid])T-NH2)	4	5.0

The remaining lines, values ahead:

EC50 [1] [pM]	ThT Assay Lag time (h) [Assay (III), pH 7.5] [2] [h]	SMILES
3		CC[C@H](C)[C@H](NC(=O)[C@H](CC(C)C)NC(=O)[C@H](Cc1c[nH]c2ccccc12)NC(=O)[C@H](CCCCNC(=O)COCCOCCNC(=O)COCCOCCNC(=O)CC[C@H](NC(=O)CC[C@H](NC(=O)CC[C@H](NC(=O)CCCCCCCCCCCCCCCCC(=O)O)C(=O)O)C(=O)O)C(=O)O)NC(=O)[C@@H](NC(=O)[C@H](Cc1ccccc1)NC(=O)[C@H](CCC(=O)O)NC(=O)[C@H](CCCNC(=N)N)NC(=O)[C@H](C)NC(=O)[C@H](CCCNC(=N)N)NC(=O)[C@H](CCCNC(=N)N)NC(=O)[C@H](C)NC(=O)[C@H](CC(=O)O)NC(=O)[C@H](CC(C)C)NC(=O)[C@H](Cc1ccc(O)cc1)NC(=O)[C@H](CCCCN)NC(=O)[C@H](CO)NC(=O)[C@H](Cc1ccc(O)cc1)NC(=O)[C@H](CC(=O)O)NC(=O)[C@H](CO)NC(=O)[C@@H](NC(=O)[C@H](Cc1ccccc1)NC(=O)[C@@H](NC(=O)CNC(=O)[C@H](CCC(N)=O)NC(=O)C(C)(C)NC(=O)[C@@H](N)Cc1c[nH]cn1)[C@@H](C)O)[C@@H](C)O)C(C)C)C(=O)N[C@@H](CO)C(=O)N[C@H](C(N)=O)[C@@H](C)O [Chem. 4, N^ε24-[2-[2-[2-[[2-[2-[2-[[(4S)-4-carboxy-4-[[(4S)-4-carboxy-4-[[(4S)-4-carboxy-4-(17-carboxyheptadecanoylamino)butanoyl]amino]butanoyl]amino]butanoyl]amino]ethoxy]ethoxy]acetyl]amino]ethoxy]ethoxy]acetyl]-[Aib2,Ala16,Arg20,Glu21,Lys24,Ile27,Ser28]-Glucagon amide] (H-H[Aib]QGTFTSDYSKYLDARRAREFVK([AEEA-AEEA-γGlu-γGlu-γGlu-C18 diacid])WLIST-NH2; N-terminus assumed)
2		CC[C@H](C)[C@H](NC(=O)[C@H](CC(C)C)NC(=O)[C@H](Cc1c[nH]c2ccccc12)NC(=O)[C@H](CCC(N)=O)NC(=O)[C@@H](NC(=O)[C@H](Cc1ccccc1)NC(=O)[C@H](CC(=O)O)NC(=O)[C@H](CCC(N)=O)NC(=O)[C@H](C)NC(=O)[C@H](CCCNC(=N)N)NC(=O)[C@H](CCCNC(=N)N)NC(=O)[C@H](C)NC(=O)[C@H](CC(=O)O)NC(=O)[C@H](CC(C)C)NC(=O)[C@H](Cc1ccc(O)cc1)NC(=O)[C@H](CCCCN)NC(=O)[C@H](CO)NC(=O)[C@H](CC(C)C)NC(=O)[C@H](CC(=O)O)NC(=O)[C@H](CO)NC(=O)[C@@H](NC(=O)[C@H](Cc1ccccc1)NC(=O)[C@@H](NC(=O)CNC(=O)[C@H](CCC(N)=O)NC(=O)C(C)(C)NC(=O)[C@@H](N)Cc1c[nH]cn1)[C@@H](C)O)[C@@H](C)O)C(C)C)C(=O)N[C@@H](CCCCNC(=O)COCCOCCNC(=O)COCCOCCNC(=O)CC[C@H](NC(=O)CC[C@H](NC(=O)CC[C@H](NC(=O)CCCCCCCCCCCCCCCCC(=O)O)C(=O)O)C(=O)O)C(=O)O)C(=O)N[C@H](C(N)=O)[C@@H](C)O [Chem. 7, N^ε28-[2-[2-[2-[[2-[2-[2-[[(4S)-4-carboxy-4-[[(4S)-4-carboxy-4-[[(4S)-4-carboxy-4-(17-carboxyheptadecanoylamino)butanoyl]amino]butanoyl]amino]butanoyl]amino]ethoxy]ethoxy]acetyl]amino]ethoxy]ethoxy]acetyl]-[Aib2,Leu10,Ala16,Ile27,Lys28]-Glucagon amide] (H-H[Aib]QGTFTSDLSKYLDARRAQDFVQWLIK([AEEA-AEEA-γGlu-γGlu-γGlu-C18 diacid])T-NH2; N-terminus assumed)
4	12.3	CC[C@H](C)[C@H](NC(=O)[C@H](CC(C)C)NC(=O)[C@H](Cc1c[nH]c2ccccc12)NC(=O)[C@H](CCC(N)=O)NC(=O)[C@@H](NC(=O)[C@H](Cc1ccccc1)NC(=O)[C@H](CCC(=O)O)NC(=O)[C@H](CCCNC(=N)N)NC(=O)[C@H](C)NC(=O)[C@H](CCCNC(=N)N)NC(=O)[C@H](CCCNC(=N)N)NC(=O)[C@H](CO)NC(=O)[C@H](CCC(=O)O)NC(=O)[C@H](CC(C)C)NC(=O)[C@H](Cc1ccc(O)cc1)NC(=O)[C@H](CCCNC(=N)N)NC(=O)[C@H](CO)NC(=O)[C@H](CC(C)C)NC(=O)[C@H](CC(=O)O)NC(=O)[C@H](CO)NC(=O)[C@@H](NC(=O)[C@H](Cc1ccccc1)NC(=O)[C@@H](NC(=O)CNC(=O)[C@H](CCC(N)=O)NC(=O)C1(NC(=O)[C@@H](N)Cc2c[nH]cn2)CCC1)[C@@H](C)O)[C@@H](C)O)C(C)C)C(=O)N[C@@H](CCCCNC(=O)CC[C@H](NC(=O)CC[C@H](NC(=O)COCCOCCNC(=O)COCCOCCNC(=O)CC[C@H](NC(=O)CC[C@H](NC(=O)CCCCCCCCCCCCCCCCC(=O)O)C(=O)O)C(=O)O)C(=O)O)C(=O)O)C(=O)N[C@H](C(N)=O)[C@@H](C)O [Chem. 17, N^ε28-[(4S)-4-carboxy-4-[[(4S)-4-carboxy-4-[[2-[2 [2-[[2-[2-[2-[[(4S)-4-carboxy-4-[[(4S)-4-carboxy-4-(17-carboxyheptadecanoylamino)butanoyl]amino]butanoyl]amino]ethoxy]ethoxy]acetyl]amino]ethoxy]ethoxy]acetyl]amino]butanoyl]amino]butanoyl]-[Acb2,Leu10,Arg12,Glu15,Arg20,Glu21,Ile27,Lys28]-Glucagon amide] (H-H[Ac4c]QGTFTSDLSRYLESRRAREFVQWLIK([γGlu-γGlu-AEEA-AEEA-γGlu-γGlu-C18 diacid])T-NH2)
